Measurements as given in patent US20100204340A1 (priority 2009, published 2010).
Values after ≈ are worked out from the molar mass of the structure shown.

Tests used:
[1] = tested on: Bacterial reverse mutation; assay: Bacterial reverse mutation assay (AMES); type: cell-based; conditions: presence and absence of metabolic activation, upto 415 μg/ml
Description: 3-hydroxypterostilbene is non mutagenic in the Bacterial reverse mutation assay (AMES), both in the presence and absence of metabolic activation, upto a workable concentration of 415 μg/ml.

tyrosinase = assay: Anti tyrosinase activity; type: biochemical
Elastase = assay: Anti Elastase assay; type: biochemical
Sprague Dawley rats = assay: in vivo; conditions: rat, po
Description: (§1) Repeated dose 90 day Oral toxicity study for 3HPT in Sprague Dawley rats: The study was conducted to evaluate the possible health hazards likely to arise from repeated exposure to 3HPT over a relatively limited period of time. The study was conducted in six groups consisting of 120 rats with 60 males and 60 females. Group-I, I (R), II, III, IV and IV (R) served as Control, Control Recovery, Low dose (20 mg/kg Bwt), Mid dose (80 mg/kg Bwt), High dose (200 mg/kg Bwt) and High dose Recovery (200 mg/kg Bwt) groups respectively. The test item or vehicle was administered through oral route by gavage to animals daily for 90 days. The animals of Control group and Control recovery group were administered with Corn oil. The vehicle and test item administration to Control Recovery and High dose Recovery group animals respectively was stopped after 90 days of administration and observed for another 28 days to evaluate the effects during recovery period. […] Body weights and food consumptions were recorded at weekly intervals. On completion of 90 days for treatment groups or 118 days for recovery groups respectively, the blood samples were collected from all the animals and subjected to haematological and clinical chemistry evaluation. At termination the animals were humanely sacrificed and subjected to necropsy examination. […]

in vivo = conditions: both sexes, Sprague Dawley, rat, po
Description: as §1

α-glucosidase = assay: Anti α-glucosidase activity; type: biochemical
[2] = tested on: Propionibacterium acnes ATCC 11827; assay: Disc diffusion method, zone of inhibition; type: cell-based
Text: Method: Disc diffusion method was done to study Minimum inhibitory concentration (MIC).
Materials • 1. Propionibacterium acnes ATCC 11827 • 2. Physiological saline or Buffered peptone water (BPW). • 3. Reinforced clostridium medium (RCM) Hi-media • 4. Reinforced clostridium agar (RCA) Hi-media • 5. Anaerobic chamber. • 6. Gassing manifold Nitrogen, mixed gases. • 7. Spectrophotometer (600 nm to 625 nm). • 8. Sterile Petri plates (150 mm×90 mm). • 9. Sterile micro pipettes and sterile micro tips. • 10. Sterile disc 6 mm. • 11. Samples tested: Resveratrol (Batch No.: C81173) and 3-Hydroxypsterostilbene (Batch No.: P80096)
The chamber used in the study is of COY LABORATORY USA model 8301-230, 3 ft polymer. The anaerobic chamber consists of a main chamber where in all the operations and incubation of the culture are carried out and a transfer chamber which is meant for taking the materials in and out of the equipment. The main chamber is provided with a heated fan box in order to maintain the required temperature (37° C.) and to circulate the air in the chamber. A catalyst stakpak is fixed to this fan box which consists of palladium catalyst, which is meant to convert oxygen to water molecules by reacting with hydrogen molecules. The anaerobic condition in the chamber for this is maintained by initialization with Nitrogen gas and then by the Mixture gas of N2+H2+CO2 in the proportion 80:10:10. Two gas tank arrangements have been done where only N2 is connected to the transfer chamber.
To carry out the antimicrobial activity of the products against P.acnes the organism was first cultured in the anaerobic conditions. Culture was inoculated into pre-sterile reinforced Clostridium medium (RCM) and incubated at anaerobic condition for 24 hrs. 24 hr to 48 hrs culture at Optical Density @625 nm was determined 0.632 (1:2 dilution) 4.0 Macfarland standards.
30 ml of sterilized RCM was poured into the pre-sterile Petri plates inside the chamber and allowed to solidify. The culture was inoculated (0.2 ml/plate) and spread evenly. After 30 minutes, antibacterial sterile discs (6 mm) were dispensed. […] 10 μl of the prepared sample and controls were dispensed onto the discs. The plates were incubated inside the anaerobic chamber at 37° C. for 24 to 48 hours duration.

[3] = tested on: B16F1 mouse melanoma cell line; assay: Melanin inhibitory assay; type: cell-based; conditions: B16-F1
collagenase = assay: Anti collagenase assay; type: biochemical
[4] = Pharmacokinetics in serum and urine upon oral administration; type: in vivo, rats; conditions: rat, in vivo, po, 100 mg/kg
Description: The compound in its free and conjugated form is freely absorbed into systemic circulation with the glucoronide detected up to 72 hours.
(FIG. 4). The compound in its free and conjugated form appears in systemic circulation within 15 minutes of administration.

[5] = Oxygen Radical Absorbance Capacity (ORAC)
[6] = sample 5.0 % (w/v) in DMSO, 10 μl per 6 mm disc

With COc1cc(/C=C/c2ccc(O)c(O)c2)cc(OC)c1 [3-hydroxypterostilbene] the Mutagenicity [1] was “non mutagenic”, the “IC50, anti tyrosinase activity” value (tyrosinase) was “IC50 is 2 μg/ml” and the “IC50, anti Elastase” value (Elastase) was “IC50 is 82 μg/ml”. The “Necropsy and histopathology examination of tissues and organs” value (Sprague Dawley rats) was “did not reveal any pathological changes”, the NOAEL at 90 days (in vivo) was 200 mg/kg and the “IC50, anti α-glucosidase” value (α-glucosidase) was “IC50 is 203.7 μg/ml”. For the same compound, the Zone of inhibition ([2]; sample 0.078 % (w/v) in DMSO) was “No zone”, the Zone of inhibition ([2]; sample 0.156 % (w/v) in DMSO) was “No zone” and the Zone of inhibition ([2]; sample 0.31 % (w/v) in DMSO (3.12 mg/ml), listed as 3-Hydroxy Pterostilbene) was 10.0 mm. It also gave a Zone of inhibition ([2]; sample 0.31 % (w/v) in DMSO (3.12 mg/ml), listed as 3-Hydroxy pterostilbene) of 10 mm, a Zone of inhibition ([2]; sample 0.625 % (w/v) in DMSO) of 13.0 mm and a Zone of inhibition ([2]; sample 1.25 % (w/v) in DMSO) of 15.0 mm. It also gave a Zone of inhibition ([2]; sample 2.5 % (w/v) in DMSO) of 17.0 mm, a Zone of inhibition [2, 6] of 18.0 mm and an IC50 [3] of 0.7 µg/mL (≈ 2.57 µM). The “SC50, DPPH scavenging” value (DPPH scavenging assay) was “SC50 is 1.34 μg/ml”, the “IC50, anti collagenase” value (collagenase) was “IC50 is 90 μg/ml” and the “Oral bioavailability (free form and glucoronide)” value [4] was “orally bioavailable”. For the same compound, the “Time to appearance in systemic circulation (free and conjugated form)” value [4] was no more than 15 min, the Urinary excretion form [4] was “excreted predominantly as glucoronides in the urine” and the “Oxygen Radical Absorbance Capacity (ORAC)” value [5] was 13334 ± 323 μmol TE/100 g.
In the case of Oc1ccc(/C=C/c2cc(O)cc(O)c2)cc1 [Resveratrol, 3,4′,5-trihydroxy-trans-stilbene], the “Concentration required to produce a zone of inhibition of 10 mm” value ([2]; disc diffusion, 0.625% w/v) is reported as 6.25 mg/mL, the Zone of inhibition ([2]; sample 0.078 % (w/v) in DMSO) is reported as “No zone” and the Zone of inhibition ([2]; sample 0.156 % (w/v) in DMSO) is reported as “No zone”. The Zone of inhibition ([2]; sample 0.31 % (w/v) in DMSO (3.12 mg/ml)) was “No zone”, the Zone of inhibition ([2]; sample 0.625 % (w/v) in DMSO) was 10.0 mm and the Zone of inhibition ([2]; sample 1.25 % (w/v) in DMSO) was 12.0 mm. For the same compound, the Zone of inhibition ([2]; sample 2.5 % (w/v) in DMSO) was 13.0 mm and the Zone of inhibition [2, 6] was 13.0 mm.
